Test results from article PMC10819888, “Benzimidazole-Based Derivatives as Apoptotic Antiproliferative Agents: Design, Synthesis, Docking, and Mechanistic Studies” (Molecules, 2024).
Where two headings read alike, the source gives them in different places.

Key:
BRAF^V600E [1] = test system: BRAF^V600E; set-up: method as in PMID 18942827; conditions: cited from earlier work
four cancer cell lines = test system: four cancer cell lines; set-up: method as in PMID 37716963; conditions: against four cancer cell lines; cited from earlier work
BRAF^V600E [2] = test system: BRAF^V600E; set-up: method as in PMID 37716963; conditions: cited from earlier work
caspase-3 = experiment: Caspase-3 activation assay; assay type: cell-based, human; conditions: PC-3 cell line
Excerpt: Caspase-3 is a key caspase that cleaves numerous cell proteins, resulting in apoptosis. […] They elevated the protein caspase-3 in the PC-3 cancer cell line by around seven to nine times compared to untreated control cells.
(§1) For more details, see Supplementary Materials. […]
4.2.3. Caspase-3 activation assay
Allow all reagents to reach room temperature before use. Gently mix all liquid reagents prior to use. Determine the number of 8-well strips needed for the assay. Insert these in the frame(s) for current use. Add 100 μl of the Standard Diluent Buffer to the zero standard wells. Well(s) reserved for chromogen blank should be left empty. Add 100 μl of standards and controls or diluted samples to the appropriate microtiter wells. The sample dilution chosen should be optimized for each experimental system. Tap gently on side of plate to mix. Cover wells with plate cover and incubate for 2 hours at room temperature. Thoroughly aspirate or decant solution from wells and discard the liquid, Wash wells 4 times. Pipette 100 μl of Caspase-3 (Active) Detection Antibod y solution into each well except the chromogen blank(s). Tap gently on the side of the plate to mix.
Cover plate with plate cover and incubate for 1 hour at room temperature. Thoroughly aspirate or decant solution from wells and discard the liquid, Wash well s 4 times. Add 100 μl Anti-Rabbit IgG HRP Working Solution to each well except the chromogen blank(s). Prepare the working dilution as described in Preparing IgG HRP. Cover wells with the plate cover and incubate for 30 minutes at room temperature. Thoroughly aspirate or decant solution from wells and discard the liquid. Wash wells 4 times. Add 100 μl of Stabilized Chromogen to each well. The liquid in the wells will begin to turn blue. Incubate for 30 minutes at room temperature and in the dark. The incuba tion time for chromogen substrate is often determined by the microtiter plate reader used. Many plate readers have the capacity to record a maximum optical density (O.D.) of 2.0. The O.D. values should be monitored, and the substrate reaction stopped befor e the O.D. of […]
the positive wells exceeds the limits of the instrument. The O.D. values at 450 nm can only be read after the Stop Solution has been added to each well. If using a reader that […]
100 μl of Stop Solution to each well. Tap side of plate gently to mix. The solution in the wells should change from blue to yellow. Read the absorbance of each well at 450 nm having blanked the plate reader against a chromogen blank composed of 100 μl each of Stabilized Chromogen and Stop Solution. Read the plate within 2 hours after adding the Stop Solution. Use a curve fitting software to generate the standard curve. A four-parameter algorithm provides the best standard curve fit. Read the concentrations for unknown samples and controls from the standard curve. Multiply value(s) obtained for sample(s) by the appropriate dilution factor to correct for the dilution in step 3. Samples producing signals greater than that of the highest standard should be diluted in Standard Diluent Buffer and reanalyzed. […]
A standard curve is […]
prepared from 7human Caspase-8 standard dilutions and human Caspase-8 concentration determined.

Bcl-2 = Bcl-2 inhibition assay; assay type: cell-based, human; conditions: PC-3 cell line
Protocol: as §1
4.2.6. Bcl-2 inhibition assay
Mix all reagents thoroughly without foaming before use. Wash the microwells twice with approximately 300 μL Wash Buffer per well with thorough aspiration of microwell contents between washes. Take caution not to scratch the surface of the microwells.
After the last wash, empty the wells and tap microwell strips on absorbent pad or paper towel to remove excess Wash Buffer. Use the microwell strips immediately after washing or place upside down on a wet absorbent paper for not longer than 15 minutes.
Add 100 μL of Sample Diluent in duplicate to all standard wells and to the blank wells. Prepare standard (1:2 dilution) in duplicate ranging from 32 ng/mL to 0.5 ng/mL. Add 100 μL of Sample Diluent, in duplicate, to the blank wells.
Add 80 μL of Sample Diluent, in duplicate, to the sample wells. Add 20 μL of each Sample, in duplicate, to the designated wells. Add 50 μL of diluted biotin-conjugate to all wells, including the blank wells. Cover with a plate cover and incubate at room temperature, on a microplate shaker at 100 rpm if available, for 2 hours. Remove plate cover and empty the wells. Wash microwell strips 3 times as described in step 2. Add 100 μL of diluted Streptavidin-HRP to all wells, including the blank wells. Cover with a plate cover and incubate at room temperature, on a microplate shaker at 100 rpm if available, for 1 hour. Remove plate cover and empty the wells. Wash microwell strips […]
3 times as described in step 2. Proceed to the next step. Pipette 100 μl of mixed TMB Substrate Solution to all wells, including the blanks. Incubate the microwell strips at room temperature (18° to 25°C) for about 15 minutes, if available on a rotator set at 100 rpm. Avoid direct exposure to intense light. The point, at which the substrate reaction is stopped, is often determined by the ELISA reader. Many ELISA readers record absorbance only up to 2.0 O.D. Therefore, the color development within individual microwells must be watched by the person running the assay and the substrate reaction stopped before positive wells are no longer properly detectable. Stop the enzyme reaction by quickly pipetting 100 μL of Stop Solution into each well, including the blank wells. It is important that the Stop Solution is spread quickly and uniformly throughout the microwells to completely inactivate the enzyme. Results must be read immediately after the Stop Solution is added or within one hour if the microwell strips are stored at 2 - 8°C in the dark. Read absorbance of each microwell on a spectrophotometer using 450 nm as the primary wavelength.
4.3. Statistical analysis
Computerized Prism 5 program was used to statistically analyzed data using one-way ANOVA test followed by Tukey’s as post ANOVA for multiple comparison at P ≤.05.
Data were presented as mean ± SEM.

Bax = Bax activation assay; assay type: cell-based, human; conditions: PC-3 cell line
Protocol: For more details, see Supplementary Materials.
4.2.5. Bax activation assay
Bring all reagents, except the human Bax-α Standard, to room temperature for at least 30 minutes prior to opening. The human Bax -α Standard solution should not be left at room temperature for more than 10 minutes. All standards, controls and samples should be run in duplicate. Refer to the Assay Layout Sheet to determine the number of wells to be used and put any remaining wells with the desiccant back into the pouch and seal the ziploc. Store unused wells at 4 °C. Pipet 100 μL of Assay Buffer into the S0 ( 0 pg/mL standard) wells. Pipet 100 μL of Standards #1 through #6 into the appropriate wells. Pipet 100 μL of the Samples into the appropriate wells. Tap the plate gently to mix the contents. Seal the plate and incubate at room temperature on a plate shaker for 1 hour at ~500 rpm. Empty the contents of the wells and wash by adding 400 μL of wash solution to every well. Repeat the wash 4 more times for a total of 5 washes. After the final wash, empty or aspirate the wells and firmly tap the plate on a lint fr ee paper towel to remove any remaining wash buffer. Pipet 100 μL of yellow Antibody into each well, except the Blank. Seal the plate and incubate at room temperature on a plate shaker for 1 hour at ~500 rpm. Empty the contents of the wells and wash by addi ng 400 μL of […]
the final wash, empty or aspirate the wells and firmly tap the plate on a lint free paper towel to remove any remaining wash buffer. Add 100 μL of blue Co njugate to each well, except the Blank. Seal the plate and incubate at room temperature on a plate shaker for 30 minutes at ~500 rpm. Empty the contents of the wells and wash by adding 400 μL of wash solution to every well. Repeat the wash 4 more times for a total of 5 washes .
After the final wash, empty or aspirate the wells and firmly tap the plate on a lint free paper towel to remove any remaining wash buffer. Pipet 100 μL of Substrate Solution into each well. Incubate for 30 minutes at room temperature on a plate shaker at ~500 rpm. Pipet 100 μL Stop Solution to each well. Blank the plate reader against the Blank wells, read the optical density at 450 nm. Calculate the average net Optical Density (OD) bound for each standard and sample by subtracting the average Blank OD from the average OD for each standard and sample. Using linear graph paper, plot the Average Net OD for each standard versus Bax concentration in each standard.
Approximate a straight line through the points. The concentration of Bax in the unknowns can be determined by interpolation. […]

[3] = Figure 1, read-out: IC50 BRAF inhibitor
[4] = text b8, read-out: IC50 anti-BRAF^V600E

In the case of `COC(=O)c1ccc2[nH]c(-c3ccc(Cl)cc3)nc2c1` [Compound 2], the IC50 (BRAF^V600E [1]; [3]) is given as 2 nM and the IC50 (BRAF^V600E [1]; [4]) is given as 2000 nM.
For `COc1ccc(-c2nc3cc(-c4nnc(SCC(=O)Nc5ccc(C(=O)/C=C/c6ccccc6)cc5)o4)ccc3[nH]2)cc1` [Compound 4], the GI50 (four cancer cell lines) is listed as 1200 nM and the IC50 (BRAF^V600E [2]) is listed as 1700 ± 200 nM.
In the case of `CN[C@@H]1C[C@H]2O[C@@](C)([C@@H]1OC)n1c3ccccc3c3c4c(c5c6ccccc6n2c5c31)C(=O)NC4` [staurosporine, reference compound], the “Caspase-3 Conc” value (caspase-3) is reported as 260 ± 5 pg/mL, the caspase-3 protein level (caspase-3) is reported as 260 ± 5 pg/mL and the “Bcl-2 Conc” value (Bcl-2) is reported as 1.00 ng/mL. For the same compound, the “Bax Conc” value (Bax) was 170 pg/mL, the “Bax increase compared to untreated PC-3 cancer cells” value (Bax) was 24 fold and the Bax level (Bax) was 170 pg/mL.
In the case of `NNC(=O)c1ccc2[nH]c(-c3ccc(Cl)cc3)nc2c1` [Compound 3], the IC50 (BRAF^V600E [1]; [3]) is listed as 14 nM and the IC50 (BRAF^V600E [1]; [4]) is listed as 14000 nM.
